This is an account of results in ChEMBL document CHEMBL5465560, “Selectivity Literature for EUbOPEN Chemogenomic Library” (2024).

The target of experiment [1] is Serine/threonine-protein kinase 38-like (Homo sapiens) (UniProt Q9Y2H1). The experiment is described as follows: Selectivity interaction (KinomeScan (DiscoverX)) EUB0001619a STK38L. The conditions noted are these: at 1 µM.
Experiment [2] has as its target Phosphatidylinositol 3-kinase catalytic subunit type 3 (Homo sapiens, UniProt Q8NEB9). The experiment is described as follows: Selectivity interaction (ActivX KiNativ screen (ex vivo kinase selectivity in human PBMCs)) EUB0001619a PIK3C3. The conditions noted are these: PBMC, at 1 µM. It counts as cell-based.
Experiment [3] has as its system eIF-2-alpha kinase GCN2 (Homo sapiens), Q9P2K8 [S808G]. The experiment is described as follows: Selectivity interaction (KinomeScan (DiscoverX)) EUB0000607a EIF2AK4. The following applies: at 10 µM.
Experiment [4] has as its target T1, Eukaryotic translation initiation factor 2-alpha kinase 3 (Homo sapiens) (UniProt Q9NZJ5).
T1 sequence (whole entry): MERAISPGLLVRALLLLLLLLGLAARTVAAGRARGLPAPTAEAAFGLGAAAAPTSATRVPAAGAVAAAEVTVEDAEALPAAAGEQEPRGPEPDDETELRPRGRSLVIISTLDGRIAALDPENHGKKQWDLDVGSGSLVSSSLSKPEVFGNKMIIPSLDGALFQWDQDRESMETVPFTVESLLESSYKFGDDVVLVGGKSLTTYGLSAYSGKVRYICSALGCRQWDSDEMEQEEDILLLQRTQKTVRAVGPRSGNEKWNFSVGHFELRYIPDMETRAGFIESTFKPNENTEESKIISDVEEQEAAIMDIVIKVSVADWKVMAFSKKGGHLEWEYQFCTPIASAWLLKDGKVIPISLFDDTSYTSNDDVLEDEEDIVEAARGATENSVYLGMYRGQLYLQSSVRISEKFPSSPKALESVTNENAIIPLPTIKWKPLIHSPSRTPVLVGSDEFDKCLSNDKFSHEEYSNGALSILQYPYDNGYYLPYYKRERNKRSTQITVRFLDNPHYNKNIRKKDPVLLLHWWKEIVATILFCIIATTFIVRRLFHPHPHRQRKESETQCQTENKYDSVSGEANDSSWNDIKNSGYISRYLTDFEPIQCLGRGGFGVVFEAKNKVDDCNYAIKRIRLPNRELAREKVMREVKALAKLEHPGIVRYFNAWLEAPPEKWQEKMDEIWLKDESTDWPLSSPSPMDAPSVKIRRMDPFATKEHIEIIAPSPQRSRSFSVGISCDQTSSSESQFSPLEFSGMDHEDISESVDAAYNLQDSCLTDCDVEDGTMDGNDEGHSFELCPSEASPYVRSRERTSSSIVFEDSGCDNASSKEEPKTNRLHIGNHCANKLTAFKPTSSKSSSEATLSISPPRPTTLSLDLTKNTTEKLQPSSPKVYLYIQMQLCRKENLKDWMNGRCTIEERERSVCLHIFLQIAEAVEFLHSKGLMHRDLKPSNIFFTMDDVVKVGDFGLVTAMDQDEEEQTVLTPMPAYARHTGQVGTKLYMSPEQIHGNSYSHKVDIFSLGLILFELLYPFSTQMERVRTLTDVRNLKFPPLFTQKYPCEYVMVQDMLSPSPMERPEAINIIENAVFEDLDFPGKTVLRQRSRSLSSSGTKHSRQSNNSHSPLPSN
The experiment is described as follows: Selectivity interaction (ActivX KiNativ screen (kinase selectivity in THP-1 cell lysates)) EUB0000639a EIF2AK3. It counts as subcellular. The conditions noted are these: lysate.

For experiment [5], the target named is T2, Myotonin-protein kinase (Homo sapiens) (UniProt Q09013).
T2 sequence (whole entry): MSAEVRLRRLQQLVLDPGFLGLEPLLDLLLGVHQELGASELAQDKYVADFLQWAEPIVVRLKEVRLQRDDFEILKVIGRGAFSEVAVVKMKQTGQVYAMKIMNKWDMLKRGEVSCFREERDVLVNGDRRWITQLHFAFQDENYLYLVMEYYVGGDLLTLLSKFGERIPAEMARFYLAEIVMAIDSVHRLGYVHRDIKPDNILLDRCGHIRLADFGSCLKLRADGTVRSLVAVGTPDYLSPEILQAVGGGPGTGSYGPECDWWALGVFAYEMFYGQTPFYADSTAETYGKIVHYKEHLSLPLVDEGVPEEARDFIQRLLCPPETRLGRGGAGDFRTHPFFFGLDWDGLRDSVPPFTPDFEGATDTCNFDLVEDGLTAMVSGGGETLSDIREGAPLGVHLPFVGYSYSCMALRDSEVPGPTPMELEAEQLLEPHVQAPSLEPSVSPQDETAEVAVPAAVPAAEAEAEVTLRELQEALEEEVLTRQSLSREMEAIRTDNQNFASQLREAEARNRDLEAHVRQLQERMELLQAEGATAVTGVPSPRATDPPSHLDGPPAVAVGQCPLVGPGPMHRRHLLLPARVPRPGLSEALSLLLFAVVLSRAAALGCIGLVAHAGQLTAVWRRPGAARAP
Briefly: Selectivity interaction (Kinase panel (Invitrogen)) EUB0000639a DMPK. The following applies: at 200 nM.

Experiment [6] addresses Tyrosine-protein kinase Lck (Homo sapiens, UniProt P06239). The experiment is described as follows: Selectivity interaction (Kinase panel (KiNativ target engagement assay in Jurkat cells)) EUB0001635a LCK. It counts as cell-based. The following applies: Selectivity number of off-targets 0.0, Selectivity number of targets 233.0, Source Knowledge https://www.sciencedirect.com/science/article/pii/S2451945619300674?via%3Dihub, at 1 µM.

Structures are written as SMILES.

Serine/threonine-protein kinase 38-like (Homo sapiens), sequence (Q9Y2H1 2-464 limits assumed): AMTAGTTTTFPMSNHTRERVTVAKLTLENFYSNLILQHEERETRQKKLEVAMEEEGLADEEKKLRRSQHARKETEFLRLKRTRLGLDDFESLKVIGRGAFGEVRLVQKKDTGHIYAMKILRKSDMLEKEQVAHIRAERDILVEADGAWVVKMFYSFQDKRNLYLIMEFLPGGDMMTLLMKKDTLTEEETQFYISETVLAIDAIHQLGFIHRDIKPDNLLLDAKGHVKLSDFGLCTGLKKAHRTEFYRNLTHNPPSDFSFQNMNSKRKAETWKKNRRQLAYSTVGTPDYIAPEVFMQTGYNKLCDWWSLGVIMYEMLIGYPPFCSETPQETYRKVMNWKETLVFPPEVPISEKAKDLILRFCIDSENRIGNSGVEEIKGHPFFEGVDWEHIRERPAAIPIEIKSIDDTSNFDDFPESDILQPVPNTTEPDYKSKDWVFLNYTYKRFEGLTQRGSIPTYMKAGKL
eIF-2-alpha kinase GCN2 (Homo sapiens), Q9P2K8 [S808G], sequence (Q9P2K8 whole entry S808G): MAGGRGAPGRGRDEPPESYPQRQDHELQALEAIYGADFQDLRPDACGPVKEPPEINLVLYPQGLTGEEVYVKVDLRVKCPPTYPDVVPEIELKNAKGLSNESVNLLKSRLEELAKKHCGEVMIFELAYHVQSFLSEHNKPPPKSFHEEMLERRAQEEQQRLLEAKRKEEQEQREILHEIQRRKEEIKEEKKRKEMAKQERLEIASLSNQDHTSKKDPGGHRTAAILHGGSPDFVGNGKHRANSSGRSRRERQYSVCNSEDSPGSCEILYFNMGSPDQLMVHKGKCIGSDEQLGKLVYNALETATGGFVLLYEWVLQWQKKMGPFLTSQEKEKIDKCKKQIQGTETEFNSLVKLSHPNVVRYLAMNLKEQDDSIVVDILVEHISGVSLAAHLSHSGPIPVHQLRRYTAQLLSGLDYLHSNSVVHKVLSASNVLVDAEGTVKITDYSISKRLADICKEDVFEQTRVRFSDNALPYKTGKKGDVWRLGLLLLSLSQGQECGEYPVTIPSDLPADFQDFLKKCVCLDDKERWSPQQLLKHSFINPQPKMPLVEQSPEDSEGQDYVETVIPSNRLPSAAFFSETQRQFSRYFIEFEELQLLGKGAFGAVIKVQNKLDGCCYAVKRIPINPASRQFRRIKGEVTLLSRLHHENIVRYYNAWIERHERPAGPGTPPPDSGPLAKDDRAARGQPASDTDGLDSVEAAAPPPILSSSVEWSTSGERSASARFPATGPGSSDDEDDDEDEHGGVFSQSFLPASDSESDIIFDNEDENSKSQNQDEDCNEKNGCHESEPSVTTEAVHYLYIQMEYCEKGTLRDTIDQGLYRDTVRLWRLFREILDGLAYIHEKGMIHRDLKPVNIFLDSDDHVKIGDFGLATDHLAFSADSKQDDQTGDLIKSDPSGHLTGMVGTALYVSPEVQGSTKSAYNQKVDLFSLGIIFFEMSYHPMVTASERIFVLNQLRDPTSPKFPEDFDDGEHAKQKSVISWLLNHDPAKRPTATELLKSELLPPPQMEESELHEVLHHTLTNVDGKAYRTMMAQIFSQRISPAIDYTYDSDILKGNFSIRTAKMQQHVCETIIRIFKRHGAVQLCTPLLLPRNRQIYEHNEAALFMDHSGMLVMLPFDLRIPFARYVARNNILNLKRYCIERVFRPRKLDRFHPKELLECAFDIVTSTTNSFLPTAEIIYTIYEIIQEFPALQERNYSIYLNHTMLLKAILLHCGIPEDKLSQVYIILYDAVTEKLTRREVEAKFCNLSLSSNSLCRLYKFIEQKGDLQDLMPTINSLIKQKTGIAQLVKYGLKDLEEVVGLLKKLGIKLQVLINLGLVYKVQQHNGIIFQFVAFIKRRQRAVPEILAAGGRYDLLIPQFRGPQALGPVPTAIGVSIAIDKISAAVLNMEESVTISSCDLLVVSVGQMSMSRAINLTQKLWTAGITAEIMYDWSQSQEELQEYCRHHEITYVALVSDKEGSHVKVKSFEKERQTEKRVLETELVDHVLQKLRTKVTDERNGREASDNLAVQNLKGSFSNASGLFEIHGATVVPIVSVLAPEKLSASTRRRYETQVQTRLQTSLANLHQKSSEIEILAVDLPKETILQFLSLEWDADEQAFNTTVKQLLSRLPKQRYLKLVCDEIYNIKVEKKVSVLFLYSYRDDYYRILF
Tyrosine-protein kinase Lck, sequence (P06239 2-509 limits assumed): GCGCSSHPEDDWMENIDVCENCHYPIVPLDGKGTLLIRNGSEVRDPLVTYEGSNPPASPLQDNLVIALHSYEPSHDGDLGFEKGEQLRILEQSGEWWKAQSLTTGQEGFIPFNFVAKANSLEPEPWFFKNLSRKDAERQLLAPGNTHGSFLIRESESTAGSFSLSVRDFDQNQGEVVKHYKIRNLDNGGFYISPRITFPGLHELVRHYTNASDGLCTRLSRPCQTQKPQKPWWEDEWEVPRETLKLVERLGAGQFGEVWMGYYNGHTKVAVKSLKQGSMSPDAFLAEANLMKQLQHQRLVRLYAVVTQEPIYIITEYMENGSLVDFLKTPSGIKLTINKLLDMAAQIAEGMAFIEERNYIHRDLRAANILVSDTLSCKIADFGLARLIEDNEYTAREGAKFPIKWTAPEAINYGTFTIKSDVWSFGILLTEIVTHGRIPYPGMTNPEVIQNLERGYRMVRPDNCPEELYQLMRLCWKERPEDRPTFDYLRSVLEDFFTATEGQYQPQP
Phosphatidylinositol 3-kinase catalytic subunit type 3, sequence (Q8NEB9 whole entry): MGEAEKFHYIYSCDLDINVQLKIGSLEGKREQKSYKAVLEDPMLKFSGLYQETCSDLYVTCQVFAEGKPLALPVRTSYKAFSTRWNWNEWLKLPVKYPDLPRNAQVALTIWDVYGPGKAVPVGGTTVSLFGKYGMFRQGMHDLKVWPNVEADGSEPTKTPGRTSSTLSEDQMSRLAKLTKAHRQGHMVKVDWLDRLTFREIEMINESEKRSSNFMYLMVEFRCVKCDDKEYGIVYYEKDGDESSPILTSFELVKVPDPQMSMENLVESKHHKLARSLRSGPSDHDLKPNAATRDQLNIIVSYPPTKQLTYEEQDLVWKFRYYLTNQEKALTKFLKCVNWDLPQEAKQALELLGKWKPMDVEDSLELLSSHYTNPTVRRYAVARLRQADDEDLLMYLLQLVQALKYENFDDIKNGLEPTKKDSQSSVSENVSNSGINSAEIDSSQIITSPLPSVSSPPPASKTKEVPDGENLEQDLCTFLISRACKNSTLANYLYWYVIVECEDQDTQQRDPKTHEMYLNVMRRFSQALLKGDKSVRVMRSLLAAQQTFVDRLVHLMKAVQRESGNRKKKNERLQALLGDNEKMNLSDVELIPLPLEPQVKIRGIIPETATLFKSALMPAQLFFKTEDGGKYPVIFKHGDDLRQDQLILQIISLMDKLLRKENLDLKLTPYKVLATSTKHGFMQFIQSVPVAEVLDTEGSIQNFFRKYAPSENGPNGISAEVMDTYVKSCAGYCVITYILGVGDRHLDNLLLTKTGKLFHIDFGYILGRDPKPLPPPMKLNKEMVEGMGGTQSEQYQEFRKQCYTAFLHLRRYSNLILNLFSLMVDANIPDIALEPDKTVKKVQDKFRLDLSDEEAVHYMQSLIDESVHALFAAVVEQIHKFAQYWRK

For `N#Cc1cccc(-c2c[nH]c3ncnc(N4CCOCC4)c23)c1`, the % of control in experiment [1] is 100%. The % of inhibition in experiment [2] is -17%.
Compound `CNC(=O)Nc1ccc(-c2nc(N3CC4CCC(C3)O4)c3cnn(C4CCC5(CC4)OCCO5)c3n2)cc1` displayed a % of control in experiment [3] of 83%.
Consider `CC[C@@H]1[C@H](F)C(=O)N[C@@H]1COc1nccc2cc(C(N)=O)c(OC)cc12` [ZIMLOVISERTIB], for which the % of inhibition in experiment [4] (at 0.01 µM) is 5.1%; in experiment [4] (at 0.04 µM), -15.8%; in experiment [4] (at 0.2 µM), -12.3%; in experiment [4] (at 1 µM), -2.3%; in experiment [4] (at 5 µM), -20.8%; in experiment [5], -0.603%.
Consider `C=CC(=O)Nc1ccc(C(=O)Nc2[nH]nc3c2CN(C(=O)N[C@H](CN(C)C)c2ccccc2)C3(C)C)cc1`, for which the % of engagement in experiment [6] is -3.6%.
